Assay [1] addresses human dopamine D2Long (D2L) receptors (Homo sapiens, UniProt P14416).
Protocol: [N-Methyl-^3H]Spiroperidol Binding to Cloned Human Dopamine D2Long Receptors
This assay measures the in vitro activity of drugs on cloned human dopamine D2Long (D2L) receptors and predicts the direct dopamine-displacing properties of neuropsychiatric, cardiovascular and renal agents at human dopamine D2 receptors.
Cells were maintained in Ham's F12+10% Fetal Bovine Serum+Penicillin/Streptomycin (100 U/ml/100 μg/ml)+G418 (400 μg/ml) medium and were split using Trypsin-EDTA (1 ml/plate, room temperature for ˜2 min. or until cells have lifted off plates). • 2. […] Plates are incubated at 37° C.+5% CO2 for ˜3 days or until cells were confluent.
Cells are harvested by mechanical scraping, washed using PBS collected in 250 ml Corning polypropylene centrifuge tubes, spun down and resuspended in dH2O (final volume per harvest approximately 60 ml). Protein determination is made according to the method of Lowry (Biorad DC Assay Kit). Following the determination of the protein concentration, the protein is diluted into distilled water with 10% DMSO to the appropriate volume based on expression levels (Bmax). The concentrated protein is aliquoted into 1.5 ml screw top eppendorf tubes and placed into a −80° C. freezer.
Assay Requirement: 1 cryovial per two 96 well plates
0.5M Tris Wash Buffer, pH 7.7 • a) 44.4 g Tris HCl • 26.5 g Tris Base • q.s. to 1 Liter (0.5 M Tris buffer, pH 7.7 at 37° C.) • b) make a 1:10 dilution in distilled H2O (0.05 M. Tris buffer, pH 7.7) • 2. Tris Buffer containing physiological salts • a) Stock buffer • NaCl 7.014 g • KCl 0.372 g • CaCl2 0.222 g • MgCl2 0.204 g • q.s. To 100 ml with 0.5 M. Tris Buffer • b) Dilute 1:10 in distilled H2O • This yields 0.05 M. Tris HCl, pH 7.7, containing NaCl (120 mM), KCl (5 mM), CaCl2 (2 mM) and MgCl2 (1 mM) • Optional: add 0.1% ascorbic acid and check pH (in assays with compounds that may oxidize. • c) 1.0% polyethyleneimine stock in 0.5M Tris (reagent 1.a) • Dilute 1:10 in distilled H2O Binding Assay • 750 μl Tissue • 150 μl [^3H]NMSP • 100 μl vehicle (for total binding) or 30 μM (−)
eticlopride (for nonspecific binding) or appropriate drug concentration.
The 96-Well Packard Unifilters GF/B are incubated for >1 h at 25° C. in 0.1% polyethylenimine. The cold tissue is added last and mixed on a orbital shaker for a few seconds and is then incubated at 37° C. for 30 min in a shaking water bath. The assay is stopped by rapid filtration through Packard Unifilter plates. The filter membranes are then washed with 15 ml of ice-cold 0.05 M Tris buffer. The filters are then dried (˜15 min. under a heat lamp or incubated for 15 min. in a 60° C. oven) and a bottom seal is applied. Then 40 μl of Packard Microscint 20 scintillation cocktail are added and a permanent topseal (Type P) is applied and heat sealed. The plates are placed in a Packard Topcount.
Specific binding is defined as the difference between total binding and the binding in the presence of 3 μM S-(−)-eticlopride. Total binding is approximately 10% of the total added ligand. […] The percent inhibition at each drug concentration is the mean of duplicate determinations.
Assay [2] concerns the target T1, human dopamine D1 receptor (Homo sapiens, UniProt P21728).
T1 construct: A 1.4 Kb Hind III to Xho I fragment was subcloned into the vector pMMLV; expressed in transfected cells; host or cells: CHO cells, clone CHO-D1M#9 (plasmid pHD1MMLV), membranes
Kind of assay: [3H]-SCH-23390 binding to cloned human dopamine D1 receptors (CHO cell membranes).

Another assay deals with T2, D1 receptor (Homo sapiens, UniProt P21728).
T2 construct: expressed in transfected cells; host or cells: D1 transfected CHO cell line
Kind of assay: D1 Activation Adenylyl Cyclase Assay (cAMP FlashPlate, D1 transfected CHO cell line). The format is cell-based. As to the method: D1 Activation Adenylyl Cyclase Assay
Purpose: To measure D1-agonist activity compounds using an Adenylyl Cyclase Activation Flash Plate Assay from NEN.
Buffers: Activation and Detection buffers are provided from NEN: Catalog # SMP004A.
Maintenance of D1 transfected CHO cell line: • 1. Cells are grown in a 150 cc flask in an incubator at 37° C. with 5% CO2 for 2-3 days (4 maximum) until confluent. • 2. Aspirate off old media (Cells adhere to the plastic flask), wash 2× with sterile PBS. • 3. Add ˜5 mL of Trypsin EDTA (enough to cover bottom of the flask) for 5 min. at RT. • 4. Stop digestion with 15 mL of Media (Ham's F12 plus 10% FBS, 1% P/S, 400 μg/mL G418). • Bang flask on counter to release them from the flask. • 5. Add 2 mL of this to 30 mL of Media in a fresh flask. Return to incubator. Preparation of Cells for Assay: • 1. Loosen the cells with 5 mL Vercine (EDTA)/flask for 10 minutes in incubator. • 2. Add 20 mL of Serum-free media/flask. Transfer to 50-mL Falcon tube. • 3. Spin down cells at 1000 RPM for 5 minutes at 4° C. • 4. Aspirate off old media and resuspend in 5 mL of Serum-free media/plate to be done. • 5. Dilute 10 μL 1/10 in 90 μL Trypan Blue solution and count with a hemocytometer. • Count (live cells only) all four areas and average them. • Count X 10^5 equals cells/mL (including accounting for dilution in Trypan). • 6. Dilute to 50,000 cells/50 μL (1,000,000 cells/mL) in Serum-free media. • 7. Put 50 μL/well in Rows 3-12 of a cAMP FlashPlate. • 8. Put in incubator at 37° C. for 2-4 hours, to allow cells to recover and attach. Adenylyl Cyclase Activation Assay: • 1. Prepare the cAMP standards: • Add 130 μL/well of stimulation buffer to each row of a separate 96-well “standard” plate, 2 columns/plate. • Dilute stock cAMP standard 1/5 with stimulation buffer (final concentration is 1000 pmol/mL). Add 130 μL of this to row A. • Make 1/2 serial dilutions by adding 130 μL from each well to the next (A-G), mixing between each. • Final concentrations are: • A: 500, B: 250, C: 125, D: 62.5, E: 31.25, F: 15.6, G: 7.8, H: 0 pmol/mL. • Place 100 μL from each row from 2 columns of the standard plate into columns 1 and 2 of each “reaction” plate. • 2. Prepare the negative and positive control in the “reaction” plate: • Column 3, rows A-D, add 100 μL stimulation buffer (negative control). • Column 3, rows E-H, add 90 μL of stimulation buffer plus 10 μL of 200 μM APO (positive control, […]). (10 μL 10 mM APO, plus 490 μL stim. buffer=1/50 dilution.) • 3. Prepare the agonist compound dilutions in the “compound” plate: • Add 80 μL of stimulation buffer to row A (One column for each compound), and 90 μL of stimulation buffer to rows B—H. • Add 20 μL of 10 mM of each compound to appropriate row A. • Make 1/10 serial dilutions by adding 10 μL from each well to the next (A-H), mixing between each. • 4. […]. Prepare Detection/Stop buffer by adding 90 μL/plate of cAMP-^125I to 10 mL/plate plus 6 mL (for dead volume) of detection buffer. Steps 6-8 performed with the Multi-Mek. • 6. Add 50 μL to each well of the FlashPlate with CHO cells set up earlier. • 7. Incubate at RT for 8 minutes. • 8. Stop reaction by adding 100 μL of detection/stop buffer to each well. • 9. Cover with plastic film and incubate at RT for 16-24 hours (don't wait more than 24 hours). • 10. Count in a Packard Top-Count. Calculations: • 1. Raw signals generated by cAMP standard wells, without cells, are averaged at each cAMP concentration and converted to % B/Bo by dividing the raw signal at each cAMP concentration by the raw signal with no cAMP added. • 2. These values are used to generate a standard curve by plotting cAMP concentration versus % B/Bo. • 3. Raw data for each compound at each concentration is also converted to % B/B. by the same method. • 4. These values are then converted to pmol cAMP/mL using the standard curve. • 5. These cAMP values are then averaged across the three replicates for each compound concentration. • 6. […]

Where [3] appears, read: competitive binding, [3H]-SCH-23390, cloned human D1 in CHO membranes, read-out: D1 affinity Ki.
Where [4] appears, read: agonist activity at the D1 receptor, adenylate cyclase assay, D1 transfected CHO cell line, read-out: D1 EC50.

Where a name gives a salt, the structure may show the parent alone. Read-outs that look alike come from different tables or passages of the source.

This note sets out measurements from patent US7919508B2, “3-piperidinylisochroman-5-ols as dopamine agonists” (Aventis Pharmaceuticals Inc., priority 2004, dated 2011).

T1 sequence (P21728 whole entry, the tested form may be a part): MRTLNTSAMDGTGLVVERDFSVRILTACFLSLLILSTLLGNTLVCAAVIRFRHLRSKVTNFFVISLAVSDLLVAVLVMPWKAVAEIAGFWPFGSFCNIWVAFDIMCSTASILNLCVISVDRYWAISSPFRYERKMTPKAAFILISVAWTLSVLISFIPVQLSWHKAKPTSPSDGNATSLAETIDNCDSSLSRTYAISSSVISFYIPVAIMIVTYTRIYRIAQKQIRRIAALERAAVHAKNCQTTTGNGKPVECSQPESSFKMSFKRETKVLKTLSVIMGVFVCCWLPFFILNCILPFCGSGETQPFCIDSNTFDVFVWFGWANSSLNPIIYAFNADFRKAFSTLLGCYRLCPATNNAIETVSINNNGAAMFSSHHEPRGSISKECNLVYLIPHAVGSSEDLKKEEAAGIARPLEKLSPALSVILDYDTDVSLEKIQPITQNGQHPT
T2 sequence (P21728 whole entry): as the sequence (P21728 whole entry, the tested form may be a part) above
human dopamine D2Long (D2L) receptors, sequence (P14416 whole entry): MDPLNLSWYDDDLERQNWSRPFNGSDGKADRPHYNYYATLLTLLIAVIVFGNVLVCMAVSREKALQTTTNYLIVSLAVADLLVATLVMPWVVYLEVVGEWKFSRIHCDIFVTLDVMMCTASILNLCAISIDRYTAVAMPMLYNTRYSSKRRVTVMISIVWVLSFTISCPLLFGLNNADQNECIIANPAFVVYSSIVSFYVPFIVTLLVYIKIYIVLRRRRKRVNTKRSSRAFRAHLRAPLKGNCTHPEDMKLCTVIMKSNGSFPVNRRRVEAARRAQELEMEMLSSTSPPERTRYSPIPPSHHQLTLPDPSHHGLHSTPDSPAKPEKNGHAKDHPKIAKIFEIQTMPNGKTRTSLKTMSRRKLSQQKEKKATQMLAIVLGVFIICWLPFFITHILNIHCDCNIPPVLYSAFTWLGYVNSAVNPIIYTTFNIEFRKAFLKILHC

As for `Cc1ccc2c(c1O)C[C@@H](C1CCN(C(=O)Oc3ccc4ccccc4c3)CC1)O[C@H]2CN` [Example 123, 4-((1R,3S)-1-Aminomethyl-5-hydroxy-6-methyl-isochroman-3-yl)-piperidine-1-carboxylic acid naphthalen-2-yl ester hydrochloride], the values for the Ki in assay [1] and in assay [2] were 154 nM and 37 nM, respectively. Moreover, at D1 receptor, the EC50 (commonly the concentration at which the effect is half-maximal) was 10 nM.
On to `Cc1ccc2c(c1O)C[C@@H](C1CCN(CCC(C)C)CC1)O[C@H]2CN` [Example 41, (1R,3S)-1-Aminomethyl-6-methyl-3-[1-(3-methyl-butyl)-piperidin-4-yl]-isochroman-5-ol dihydrochloride], for which the Ki (in general, a measure of affinity in units of concentration, obtained from inhibition or displacement) in assay [1] was ≥ 10000 nM; in assay [2] (setting [3]), 114 nM. The EC50 at D1 receptor (setting [4]) turned out to be 250 nM.
Taken in the same sequence, the figures for `Cc1ccc2c(c1O)C[C@@H](C1CCN(C(=O)OC(C)C)CC1)O[C@H]2CN` [Example 111, 4-((1R,3S)-1-Aminomethyl-5-hydroxy-6-methyl-isochroman-3-yl)-piperidine-1-carboxylic acid isopropyl ester hydrochloride] were 794 nM, 165 nM and 49 nM.
The matching figures for `CNC[C@@H]1O[C@H](C2CCN(Cc3ccc(C(C)C)cc3)CC2)Cc2c1ccc(C)c2O` [Example 97, (1R,3S)-3-[1-(4-Isopropyl-benzyl)-piperidin-4-yl]-6-methyl-1-methylaminomethyl-isochroman-5-ol dihydrochloride]: 357 nM, 53.1 nM and 66 nM.
Taken in the same sequence, the figures for `Cc1ccc2c(c1O)C[C@@H](C1CCN(Cc3ccccc3Cl)CC1)O[C@H]2CN` [Example 35, (1R,3S)-1-Aminomethyl-3-[1-(2-chloro-benzyl)-piperidin-4-yl]-6-methyl-isochroman-5-ol dihydrobromide] were 96 nM, 42 nM and 44 nM.
Turning to `Cc1ccc2c(c1O)C[C@@H](C1CCN(CCNC(=O)Nc3ccc(F)cc3)CC1)O[C@H]2CN` [Example 192, (1R,3S)-1-{2-[4-(1-Aminomethyl-5-hydroxy-6-methyl-isochroman-3-yl)-piperidin-1-yl]ethyl}-3-(4-fluoro-phenyl)urea dihydrobromide], the Ki in assay [1] turned out to be 477 nM; in assay [2] (setting [3]), 77 nM. The EC50 at D1 receptor (setting [4]) was determined as 11 nM.
Regarding `Cc1ccc2c(c1O)C[C@@H](C1CCN(C(=O)Oc3ccc(Cl)cc3)CC1)O[C@H]2CN` [Example 115, 4-((1R,3S)-1-Aminomethyl-5-hydroxy-6-methyl-isochroman-3-yl)-piperidine-1-carboxylic acid 4-chloro-phenyl ester hydrochloride], the Ki in assay [1] turned out to be 506 nM; in assay [2], 39 nM. At D1 receptor, this compound registered a concentration giving a half-maximal response (EC50) of 48 nM.
Consider `Cc1ccc2c(c1O)C[C@@H](C1CCN(C(=O)Nc3cccc(O)c3)CC1)O[C@H]2CN` [Example 126, 4-((1R,3S)-1-Aminomethyl-5-hydroxy-6-methyl-isochroman-3-yl)-piperidine-1-carboxylic acid (3-hydroxy-phenyl)-amide], for which the Ki in assay [1] turned out to be 328 nM; in assay [2] (setting [3]), 21 nM. For the same compound, at D1 receptor (setting [4]), the 50% effective concentration (EC50) was 1.7 nM.
Turning to `Cc1ccc2c(c1O)C[C@@H](C1CCN(C(=O)Oc3ccc(Br)cc3)CC1)O[C@H]2CN` [Example 117, 4-((1R,3S)-1-Aminomethyl-5-hydroxy-6-methyl-isochroman-3-yl)-piperidine-1-carboxylic acid 4-bromo-phenyl ester hydrochloride], the values for the Ki in assay [1] and in assay [2] were 404 nM and 59 nM, respectively. This compound displayed an EC50 at D1 receptor of 4.3 nM.
Turning to `Cc1ccc2c(c1O)C[C@@H](C1CCN(CCNC(=O)c3ccccc3)CC1)O[C@H]2CN` [Example 191, N-{2-[4-((1R,3S)-1-Aminomethyl-5-hydroxy-6-methylisochroman-3-yl)-piperidin-1-yl]-ethyl}benzamide dihydrobromide], the Ki in assay [1] came to 415 nM; in assay [2] (setting [3]), 276 nM. Further, the EC50 at D1 receptor (setting [4]) was 180 nM.
For `Cc1ccc2c(c1O)C[C@@H](C1CCN(C(=O)Oc3ccc(F)cc3)CC1)O[C@H]2CN` [Example 118, 4-((1R,3S)-1-Aminomethyl-5-hydroxy-6-methyl-isochroman-3-yl)-piperidine-1-carboxylic acid 4-fluoro-phenyl ester hydrochloride], the Ki is ≥ 10000 nM in assay [1] and 40 nM in assay [2]. The EC50 at D1 receptor is 8.5 nM.
Take `Cc1ccc2c(c1O)C[C@@H](C1CCN(CCC(C)NC(=O)c3ccc(C(F)(F)F)cc3)CC1)O[C@H]2CN` (stereo partly drawn) [Example 16, N-{3-[4-((1R,3S)-1-Aminomethyl-5-hydroxy-6-methyl-isochroman-3-yl)-piperidin-1-yl]-1-methyl-propyl}-4-trifluoromethyl-benzamide dihydrochloride]: the results for the Ki in assay [1] and in assay [2] (setting [3]) were 379 nM and 149 nM, respectively. Moreover, the EC50 at D1 receptor (setting [4]) was found to be 56 nM.
The matching figures for `Cc1ccc2c(c1O)C[C@@H](C1CCN(Cc3ccc(C(C)C)cc3)CC1)O[C@H]2CN` [Example 48, (1R 3S)-1-Aminomethyl-3-[1-(4-isopropyl-benzyl)-piperidin-4-yl]-6-methyl-isochroman-5-ol dihydrochloride]: ≥ 10000 nM, 37.4 nM and 26 nM.
Take `Cc1ccc2c(c1O)C[C@@H](C1CCN(S(=O)(=O)CCc3cccc4ccccc34)CC1)O[C@H]2CN` [Example 159, (1R,3S)-1-Aminomethyl-6-methyl-3-[1-(2-naphthalen-1-yl-ethanesulfonyl)-piperidin-4-yl]-isochroman-5-ol hydrochloride]: the figures for the Ki in assay [1] and in assay [2] (setting [3]) were ≥ 100000 nM and 64.5 nM, respectively. On D1 receptor (setting [4]), the EC50 amounted to 35 nM.
On to `Cc1ccc(OC(=O)N2CCC([C@@H]3Cc4c(ccc(C)c4O)[C@H](CN)O3)CC2)cc1` [Example 114, 4-((1R,3S)-1-Aminomethyl-5-hydroxy-6-methyl-isochroman-3-yl)-piperidine-1-carboxylic acid p-tolyl ester hydrochloride], for which the Ki came to 511 nM in assay [1] and 64.6 nM in assay [2]. In addition, the EC50 on D1 receptor came out at 0.85 nM.
For `Cc1ccc2c(c1O)C[C@@H](C1CCN(S(=O)(=O)c3ccc(C(C)(C)C)cc3)CC1)O[C@H]2CN` [Example 146, (1R,3S)-1-Aminomethyl-3-[1-(4-tert-butyl-benzenesulfonyl)-piperidin-4-yl]-6-methyl-isochroman-5-ol hydrochloride], the Ki in assay [1] was 531 nM; in assay [2] (setting [3]) it was 89 nM. For the same compound, the EC50 at D1 receptor (setting [4]) amounted to 79 nM.
